# Results published in publication PMC7915588, “Polyphyllin D Shows Anticancer Effect through a Selective Inhibition of Src Homology Region 2-Containing Protein Tyrosine Phosphatase-2 (SHP2)” (Molecules, 2021).
# Key:
# SHP2 [1] = target: T1, SHP2 (Homo sapiens, UniProt Q06124)
# T1 construct: gene PTPN11
# T1 sequence (Q06124 1-526): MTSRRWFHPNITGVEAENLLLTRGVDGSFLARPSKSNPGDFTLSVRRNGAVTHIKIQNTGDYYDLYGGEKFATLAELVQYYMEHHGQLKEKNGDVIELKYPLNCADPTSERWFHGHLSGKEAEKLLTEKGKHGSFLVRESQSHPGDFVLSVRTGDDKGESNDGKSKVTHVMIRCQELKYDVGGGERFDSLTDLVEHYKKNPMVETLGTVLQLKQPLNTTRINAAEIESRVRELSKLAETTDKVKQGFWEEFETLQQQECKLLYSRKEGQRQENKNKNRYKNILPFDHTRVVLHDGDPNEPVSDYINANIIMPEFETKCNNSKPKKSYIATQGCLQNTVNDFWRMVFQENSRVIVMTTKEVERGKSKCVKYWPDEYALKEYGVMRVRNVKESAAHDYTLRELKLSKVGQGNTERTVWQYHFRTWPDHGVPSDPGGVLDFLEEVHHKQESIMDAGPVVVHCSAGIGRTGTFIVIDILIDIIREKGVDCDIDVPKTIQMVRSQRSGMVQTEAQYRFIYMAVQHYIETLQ
# SHP2 [2] = target: T1, SHP2; assay: DiFMUP fluorogenic phosphatase assay at […]; format: biochemical
SMILES,Km (SHP2 [1]),DiFMUP fluorogenic phosphatase assay at 20 μM (SHP2 [2])
Cc1cc(=O)oc2c(F)c(OP(=O)(O)O)c(F)cc12 [DiFMUP],70 µM,–
CC1(C)CC[C@]2(C(=O)O)CC[C@]3(C)C(=CC[C@@H]4[C@@]5(C)CC[C@H](O)C(C)(C)[C@@H]5CC[C@]43C)[C@@H]2C1 [oleanolic acid],–,Echinocystic and oleanolic acids selectively inhibited SHP1 and SHP2 over the other PTPs tested
